Assay results from ChEMBL document CHEMBL5727716, “Guanidine derivative and medical use thereof” (2020).

Molecular target: T1, Mucosa-associated lymphoid tissue lymphoma translocation protein 1 (Homo sapiens, UniProt Q9UDY8)
T1 sequence (Q9UDY8 whole entry): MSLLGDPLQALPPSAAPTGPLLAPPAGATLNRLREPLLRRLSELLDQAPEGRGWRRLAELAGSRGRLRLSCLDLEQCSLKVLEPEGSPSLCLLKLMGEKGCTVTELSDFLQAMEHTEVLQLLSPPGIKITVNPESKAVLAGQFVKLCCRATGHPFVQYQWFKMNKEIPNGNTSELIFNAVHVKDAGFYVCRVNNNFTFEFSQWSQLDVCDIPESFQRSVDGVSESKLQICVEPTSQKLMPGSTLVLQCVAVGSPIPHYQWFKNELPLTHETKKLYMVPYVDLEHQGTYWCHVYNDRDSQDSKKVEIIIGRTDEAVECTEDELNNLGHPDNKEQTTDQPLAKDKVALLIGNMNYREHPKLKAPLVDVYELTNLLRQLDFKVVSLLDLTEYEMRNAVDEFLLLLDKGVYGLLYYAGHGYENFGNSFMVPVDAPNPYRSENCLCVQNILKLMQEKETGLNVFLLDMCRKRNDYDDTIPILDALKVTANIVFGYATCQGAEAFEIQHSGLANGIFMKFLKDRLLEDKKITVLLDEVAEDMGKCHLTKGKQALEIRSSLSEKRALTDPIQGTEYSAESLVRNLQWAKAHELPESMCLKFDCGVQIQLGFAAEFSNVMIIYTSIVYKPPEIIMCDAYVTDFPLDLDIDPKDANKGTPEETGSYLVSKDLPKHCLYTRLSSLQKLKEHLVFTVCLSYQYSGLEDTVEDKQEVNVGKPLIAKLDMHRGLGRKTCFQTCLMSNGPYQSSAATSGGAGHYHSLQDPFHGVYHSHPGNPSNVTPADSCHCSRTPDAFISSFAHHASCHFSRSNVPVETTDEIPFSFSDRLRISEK
Assay: Inhibition of Protease Activity Assay: Full-length cDNA of human MALT1 gene (GenBank accession No: AB026118.1) amplified by PCR was inserted in flame to a SalI site located downstream of GST gene in a pGEX6P3 vector (GE Healthcare Japan Corp.) to prepare a vector (hereinafter, referred to as a pGEX6P3-MALT1 vector). Subsequently, E. coli for protein expression (BL21-RIL-codon plus-DE3, Agilent Technologies, Inc.) was transformed with the pGEX6P3-MALT1 vector and then analyzed by ampicillin resistance screening and colony PCR to obtain an E. coli strain expressing recombinant GST fusion MALT1. Protein expression was induced with isopropyl-(3-thiogalactopyranoside. After the expression induction, E. coli precipitates were recovered by centrifugation from the E. coli culture solution, and the E. coli precipitates were homogenized and then centrifuged to obtain a supernatant. The supernatant was purified using GSTrap FF column (GE Healthcare Japan Corp.) to obtain recombinant GST fusion MALT1.B) Evaluation of Inhibition of Protease Activity of MALT1:To 89 μL of an enzyme solution ([…] GST fusion MALT1, 50 mmol/L MES, 150 mmol/L NaCl, 10% sucrose, 0.1% CHAPS, 10 mmol/L dithiothreitol, and 1 mol/L tri-ammonium citrate) per specimen, 1 μL of a test compound (DMSO-diluted solution) of each concentration was added to prepare a mixed solution. […]

IC50: 572 nM
Compound: CCCC(=O)/N=C(\N)NCc1cnc(-c2ccc(Cl)cc2)c(-c2ccc(Cl)cc2)c1
